Earlier results, collected in patent US11053255B2, “Synthesis of mahanine and related compounds” (Georgetown University, priority 2015, dated 2021).

What was measured:
[1] = test system: androgen-responsive, LNCaP prostate cancer cells; conditions: in vitro
[2] = test system: androgen-independent, PC3 prostate cancer cells; conditions: in vitro
RASSF1A = conditions: human prostate cancer cells, dose-dependent
cyclin D1 = conditions: prostate cancer cells

CC(C)=CCC[C@]1(C)C=Cc2c(c(C)cc3c2[nH]c2cc(O)ccc23)O1 [mahanine, (R)-3,5-dimethyl-3-(4-methylpent-3-en-1-yl)-3,11-dihydropyrano[3,2-a]carbazol-9-ol]
growth inhibition [1]: inhibits growth
induction of apoptosis [1]: induces apoptosis
growth inhibition [2]: inhibits growth
induction of apoptosis [2]: induces apoptosis
expression of RASSF1A (RASSF1A): induces the expression of RASSF1A
cyclin D1 transcriptional activity (cyclin D1): represses cyclin D1 transcriptional activity
